These results are taken from ChEMBL document CHEMBL3853261 (Medchemcomm, 2016).

The nature of data set [1]: Hemolytic activity in human erythrocytes after 1 hr. It is filed as ADME, cell-based, Erythrocyte. The note with it: read-out: Activity.
For data set [2], the system named is Mycobacterium tuberculosis. Briefly: Antibacterial activity against Mycobacterium tuberculosis MTCC 300 after 7 days by resazurin microtiter assay. It is filed as functional. The note with it: for MIC: MTCC 300, 168 h. On the technique in general: The colour change of resazurin is a common sign of viable cells or microbes.

Values after ≈ are worked out from the molar mass of the structure shown. Active and inactive are the calls of the source. No cut-off for these calls is given here. Bounds are passed on as bounds.

As for `NC(=S)N/N=C1\CSC(n2nc(-c3cn(-c4ccccc4)nc3-c3ccc(Br)cc3)c(O)c2-c2ccc(Br)cc2)=N1`, the hemolysis at 1 h in data set [1] is under 5%.

In general, MIC refers to the lowest concentration found to suppress growth. A high value points to weaker potency. Compound `NNC(=O)c1ccncc1` [ISONIAZID] registered an MIC in data set [2] of 0.48 µg/mL (≈ 3.5 µM).

As for `NC(=S)N/N=C1\CSC(n2nc(-c3cn(-c4ccccc4)nc3-c3ccc(Cl)cc3)c(O)c2-c2ccc([N+](=O)[O-])cc2)=N1`, the hemolysis at 1 h in data set [1] is under 5%. The “growth inhibition (GI)” value in data set [2] is “Active”.

As to `NC(=S)N/N=C1\CSC(n2nc(-c3cn(-c4ccccc4)nc3-c3ccc(Br)cc3)c(O)c2-c2cccc([N+](=O)[O-])c2)=N1`, in data set [1], the hemolysis at 1 h is under 5%.

Consider `NC(=S)N/N=C1\CSC(n2nc(-c3cn(-c4ccccc4)nc3-c3ccc(Br)cc3)c(O)c2-c2ccc(Cl)cc2)=N1`, for which, in data set [1], the hemolysis at 1 h was under 5%.

For `NC(=S)N/N=C1\CSC(n2nc(-c3cn(-c4ccccc4)nc3-c3ccc(Cl)cc3)c(O)c2-c2ccc(F)cc2)=N1`, the hemolysis at 1 h in data set [1] was under 5%. In data set [2], the “growth inhibition (GI)” value was “Active”.

On to `NC(=S)N/N=C1\CSC(n2nc(-c3cn(-c4ccccc4)nc3-c3cccc([N+](=O)[O-])c3)c(O)c2-c2cccc([N+](=O)[O-])c2)=N1`, for which the hemolysis at 1 h in data set [1] was under 5%. This compound also yielded an MIC in data set [2] of 3.9 µg/mL (≈ 6.09 µM).

Turning to `NC(=S)N/N=C1\CSC(n2nc(-c3cn(-c4ccccc4)nc3-c3ccccc3)c(O)c2-c2ccccc2)=N1`, the hemolysis at 1 h in data set [1] was under 5%. In addition, the “growth inhibition (GI)” value in data set [2] was “Active”.

Regarding `NC(=S)N/N=C1\CSC(n2nc(-c3cn(-c4ccccc4)nc3-c3ccc(Cl)cc3)c(O)c2-c2ccccc2)=N1`, the hemolysis at 1 h in data set [1] is under 5%. The “growth inhibition (GI)” value in data set [2] was “Active”.

As to `NC(=S)N/N=C1\CSC(n2nc(-c3cn(-c4ccccc4)nc3-c3ccc(Br)cc3)c(O)c2-c2ccc([N+](=O)[O-])cc2)=N1`, the hemolysis at 1 h in data set [1] is under 5%.

With `NC(=S)N/N=C1\CSC(n2nc(-c3cn(-c4ccccc4)nc3-c3cccc([N+](=O)[O-])c3)c(O)c2-c2ccc(Cl)cc2)=N1`, the hemolysis at 1 h in data set [1] was under 5%. The compound also had an MIC in data set [2] of 62.5 µg/mL (≈ 99.2 µM).

Consider `NC(=S)N/N=C1\CSC(n2nc(-c3cn(-c4ccccc4)nc3-c3ccc(Br)cc3)c(O)c2-c2ccc(F)cc2)=N1`, for which the hemolysis at 1 h in data set [1] is under 5%.

Consider `NC(=S)N/N=C1\CSC(n2nc(-c3cn(-c4ccccc4)nc3-c3ccc([N+](=O)[O-])cc3)c(O)c2-c2ccc([N+](=O)[O-])cc2)=N1`, for which the hemolysis at 1 h in data set [1] is under 5%. This compound yielded an MIC in data set [2] of 62.5 µg/mL (≈ 97.6 µM).

On to `NC(=S)N/N=C1\CSC(n2nc(-c3cn(-c4ccccc4)nc3-c3cccc([N+](=O)[O-])c3)c(O)c2-c2ccc(F)cc2)=N1`, for which the hemolysis at 1 h in data set [1] is under 5%.

For `NC(=S)N/N=C1\CSC(n2nc(-c3cn(-c4ccccc4)nc3-c3ccc([N+](=O)[O-])cc3)c(O)c2-c2cccc([N+](=O)[O-])c2)=N1`, the hemolysis at 1 h in data set [1] was under 5%. Moreover, inhibition of growth in data set [2] (MIC) required 7.81 µg/mL (≈ 12.2 µM).

As for `NC(=S)N/N=C1\CSC(n2nc(-c3cn(-c4ccccc4)nc3-c3ccc([N+](=O)[O-])cc3)c(O)c2-c2ccc(Cl)cc2)=N1`, in data set [1], the hemolysis at 1 h was under 5%. In data set [2], the “growth inhibition (GI)” value was “Active”.

`CO[C@H]1/C=C/O[C@@]2(C)Oc3c(C)c(O)c4c(O)c(c(/C=N/N5CCN(C)CC5)c(O)c4c3C2=O)NC(=O)/C(C)=C\C=C\[C@H](C)[C@H](O)[C@@H](C)[C@@H](O)[C@@H](C)[C@H](OC(C)=O)[C@@H]1C` [RIFAMPIN] registered an MIC in data set [2] of 0.24 µg/mL (≈ 0.292 µM).

For the compound `NC(=S)N/N=C1\CSC(n2nc(-c3cn(-c4ccccc4)nc3-c3ccc(Cl)cc3)c(O)c2-c2ccc(Cl)cc2)=N1`, the hemolysis at 1 h in data set [1] is under 5%. The minimal inhibitory concentration (MIC) in data set [2] was found to be 62.5 µg/mL (≈ 101 µM).

Take `NC(=S)N/N=C1\CSC(n2nc(-c3cn(-c4ccccc4)nc3-c3ccc([N+](=O)[O-])cc3)c(O)c2-c2ccc(F)cc2)=N1`: the hemolysis at 1 h in data set [1] was under 5%. Besides, the “growth inhibition (GI)” value in data set [2] is “Active”.

As for `NC(=S)N/N=C1\CSC(n2nc(-c3cn(-c4ccccc4)nc3-c3cccc([N+](=O)[O-])c3)c(O)c2-c2ccc([N+](=O)[O-])cc2)=N1`, in data set [1], the hemolysis at 1 h was under 5%. The MIC in data set [2] came out at 3.9 µg/mL (≈ 6.09 µM).
